As a reminder, the IC50 is the concentration that inhibits the measured activity by half. Usually inhibition stands for how much of the control response was suppressed.

Holding throughout (assay type): biochemical
For one test, the target named is PDE1A (Homo sapiens, UniProt P54750). In words: PDE1 inhibition assay (SPA), PDE1A. The note with it: for IC50: concentration required to reach 50% inhibition of the enzyme, 15 nM tritium labelled cAMP, read-out: PDE1A inhibition (nM or %): IC50. The method, boiled down:
(§1)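 A scintillation proximity assay used enzyme sufficient for 20–25% substrate conversion and 15 nM tritiated cAMP in 50 mM HEPES pH 7.6, 10 mM MgCl2, 0.02% Tween20 and 0.1 mg/ml BSA, run for 1 h at room temperature. Reactions were stopped with yttrium silicate SPA beads. IC50 values were derived from activity relative to uninhibited control.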

For the next test, the target named is PDE1C (Homo sapiens, UniProt Q14123). Nature of the test: PDE1 inhibition assay (SPA), PDE1C. The conditions noted are these: concentration required to reach 50% inhibition of the enzyme; 15 nM tritium labelled cAMP; read-out: PDE1C inhibition (nM or %): IC50. The method, boiled down: as §1
PDE1C, sequence (Q14123 whole entry): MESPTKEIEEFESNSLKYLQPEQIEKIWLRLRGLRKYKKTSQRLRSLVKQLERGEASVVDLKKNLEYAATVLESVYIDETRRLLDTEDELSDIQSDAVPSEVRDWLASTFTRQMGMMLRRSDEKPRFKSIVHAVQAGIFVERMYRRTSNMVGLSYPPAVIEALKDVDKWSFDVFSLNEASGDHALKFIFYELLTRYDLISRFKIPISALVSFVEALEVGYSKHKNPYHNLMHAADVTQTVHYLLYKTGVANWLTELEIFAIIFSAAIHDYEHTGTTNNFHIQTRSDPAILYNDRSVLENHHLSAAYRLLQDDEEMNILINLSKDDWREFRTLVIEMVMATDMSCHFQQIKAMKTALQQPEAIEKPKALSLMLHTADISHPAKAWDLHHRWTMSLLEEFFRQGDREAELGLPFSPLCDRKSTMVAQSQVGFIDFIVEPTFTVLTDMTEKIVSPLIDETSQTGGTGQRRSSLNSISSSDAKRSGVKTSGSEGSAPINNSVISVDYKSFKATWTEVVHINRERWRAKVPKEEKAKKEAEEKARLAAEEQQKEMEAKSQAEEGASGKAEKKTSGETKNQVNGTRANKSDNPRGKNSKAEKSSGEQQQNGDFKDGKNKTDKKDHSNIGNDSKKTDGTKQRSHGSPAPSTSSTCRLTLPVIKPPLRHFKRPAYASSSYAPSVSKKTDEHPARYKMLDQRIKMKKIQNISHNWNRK
For another test, the target named is PDE1B (Homo sapiens, UniProt Q01064). Nature of the test: PDE1 inhibition assay (SPA), PDE1B. The note with it: concentration required to reach 50% inhibition of the enzyme; 15 nM tritium labelled cAMP; read-out: PDE1B inhibition (nM or %): IC50. A digest of the protocol:
as §1

SMILES strings stand for the structures.

PDE1B, sequence (Q01064 whole entry): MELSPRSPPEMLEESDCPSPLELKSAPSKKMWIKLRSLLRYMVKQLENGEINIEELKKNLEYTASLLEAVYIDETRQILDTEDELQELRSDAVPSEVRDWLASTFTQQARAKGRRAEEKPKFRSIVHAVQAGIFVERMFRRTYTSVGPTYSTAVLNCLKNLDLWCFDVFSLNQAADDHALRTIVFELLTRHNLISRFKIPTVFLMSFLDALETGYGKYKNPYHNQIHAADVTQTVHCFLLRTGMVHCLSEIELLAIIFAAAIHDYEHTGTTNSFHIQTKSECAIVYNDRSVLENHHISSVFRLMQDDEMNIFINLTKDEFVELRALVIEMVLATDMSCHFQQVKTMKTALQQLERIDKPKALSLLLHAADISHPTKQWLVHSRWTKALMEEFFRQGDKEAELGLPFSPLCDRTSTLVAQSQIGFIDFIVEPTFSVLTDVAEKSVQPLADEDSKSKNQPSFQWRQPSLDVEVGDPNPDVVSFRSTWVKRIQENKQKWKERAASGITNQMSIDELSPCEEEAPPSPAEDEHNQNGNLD
PDE1A, sequence (P54750 whole entry): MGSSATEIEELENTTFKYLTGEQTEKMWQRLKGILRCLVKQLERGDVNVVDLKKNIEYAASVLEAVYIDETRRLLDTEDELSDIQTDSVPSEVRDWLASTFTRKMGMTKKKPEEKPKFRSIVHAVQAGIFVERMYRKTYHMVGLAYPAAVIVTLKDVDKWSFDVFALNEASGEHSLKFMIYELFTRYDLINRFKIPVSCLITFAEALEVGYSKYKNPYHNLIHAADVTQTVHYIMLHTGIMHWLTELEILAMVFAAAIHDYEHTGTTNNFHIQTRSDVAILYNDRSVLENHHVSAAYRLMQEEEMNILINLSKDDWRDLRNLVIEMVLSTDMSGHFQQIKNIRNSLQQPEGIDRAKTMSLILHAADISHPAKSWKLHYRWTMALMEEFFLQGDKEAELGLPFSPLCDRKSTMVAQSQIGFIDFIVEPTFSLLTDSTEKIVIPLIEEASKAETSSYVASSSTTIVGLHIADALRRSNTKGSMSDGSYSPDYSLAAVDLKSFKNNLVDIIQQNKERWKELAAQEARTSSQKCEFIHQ

As for `O=c1c2nnc(C3CCOCC3)n2cc(Cc2ccccc2)n1CC1CCCC1` [6-benzyl-7-(cyclopentylmethyl)-3-(tetrahydro-2H-pyran-4-yl)-[1,2,4]triazolo[4,3-a]pyrazin-8(7H)-one], the IC50 was found to be 65 nM on PDE1A, 5 nM at PDE1C and 46 nM at PDE1B.
The corresponding values for `O=c1c2nnc(C3CCOCC3)n2cc(Cc2cccc(F)c2)n1CC1CCCC1` [7-(cyclopentylmethyl)-6-(3-fluorobenzyl)-3-(tetrahydro-2H-pyran-4-yl)-[1,2,4]triazolo[4,3-a]pyrazin-8(7H)-one] are 369 nM, 27 nM and 220 nM.
Taken in the same sequence, the figures for `CCCc1nnc2c(=O)n(CC3CCC(F)(F)CC3)ccn12` [7-((4,4-difluorocyclohexyl)methyl)-3-propyl-[1,2,4]triazolo[4,3-a]pyrazin-8(7H)-one] were 450 nM, 760 nM and 420 nM.
`CCCc1nnc2c(=O)n(CC3CCC(C)CC3)ccn12` (single isomer, unassigned) [7-(((1s,4s)-4-methylcyclohexyl)methyl)-3-propyl-[1,2,4]triazolo[4,3-a]pyrazin-8(7H)-one]: the results for the IC50 at PDE1A, at PDE1C and at PDE1B were 111 nM, 36 nM and 24 nM, respectively.
Taken in the same sequence, the figures for `O=c1c2nnc(C3CCCCC3)n2ccn1Cc1cccc(F)c1` [3-Cyclohexyl-7-(3-fluorobenzyl)-[1,2,4]triazolo[4,3-a]pyrazin-8(7H)-one] were 810 nM, 120 nM and 590 nM.
As to `O=c1c2nnc(C3COC3)n2ccn1Cc1cccc(F)c1` [7-(3-Fluorobenzyl)-3-(oxetan-3-yl)-[1,2,4]triazolo[4,3-a]pyrazin-8(7H)-one], the inhibition at 10 µM at PDE1A (1 h, % inhibition of the enzyme at a concentration of 10 micro molar of the compound, read-out: PDE1A inhibition (nM or %): % inhib) was 67%. The half-inhibitory concentration (IC50) on PDE1C amounted to 1700 nM; on PDE1B, 7200 nM.
In the case of `CCCc1nnc2c(=O)n(Cc3cccc(F)c3)c([C@H]3CCOC3)cn12` (single isomer, unassigned), the IC50 at PDE1A came to 2980 nM; on PDE1C, 290 nM; at PDE1B, 1800 nM.

The values are drawn from patent US10150771B2, “Triazolopyrazinones as PDE1 inhibitors” (H. Lundbeck A/S, priority 2014, dated 2018).
